Assays:
[1] = target: T1, Prostaglandin G/H synthase 2 (Homo sapiens, UniProt P35354); assay: Inhibition of COX2 (unknown origin)
T1 sequence (P35354 whole entry): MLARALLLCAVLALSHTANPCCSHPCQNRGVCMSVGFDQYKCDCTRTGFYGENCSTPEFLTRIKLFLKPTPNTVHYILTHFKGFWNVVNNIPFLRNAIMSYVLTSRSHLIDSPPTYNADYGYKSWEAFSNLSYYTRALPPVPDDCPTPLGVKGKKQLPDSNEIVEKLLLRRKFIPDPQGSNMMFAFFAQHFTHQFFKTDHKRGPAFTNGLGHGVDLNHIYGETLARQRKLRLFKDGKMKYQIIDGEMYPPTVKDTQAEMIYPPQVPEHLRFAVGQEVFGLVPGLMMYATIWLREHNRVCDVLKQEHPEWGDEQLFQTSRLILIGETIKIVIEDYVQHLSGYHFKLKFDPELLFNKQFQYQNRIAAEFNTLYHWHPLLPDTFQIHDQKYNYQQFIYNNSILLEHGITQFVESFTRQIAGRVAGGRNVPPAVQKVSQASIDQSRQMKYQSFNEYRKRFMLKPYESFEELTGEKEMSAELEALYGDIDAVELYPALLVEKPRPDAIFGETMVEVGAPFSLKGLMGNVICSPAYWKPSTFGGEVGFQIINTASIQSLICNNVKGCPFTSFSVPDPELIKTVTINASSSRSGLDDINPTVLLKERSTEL

[2] = target: T2, Prostaglandin G/H synthase 2 (Homo sapiens) (UniProt P35354); assay: Ratio of compound IC50 to celecoxib IC50 for Inhibition of COX2 (unknown origin)
T2 sequence (whole entry): T1 sequence (P35354 whole entry)

Compound	IC50 [1] [nM]	-log(RatioIC50) [2]
CCCC/C(=C(\c1ccccc1)c1ccc(NS(C)(=O)=O)cc1)c1ccccc1	320	-0.66
CC/C(=C(\c1ccccc1)c1ccc(NS(C)(=O)=O)cc1)c1ccccc1	1800	-1.41
CCCCC(=C(c1ccccc1)c1cc(C(C)(C)C)c(O)c(C(C)(C)C)c1)c1ccc(S(C)(=O)=O)cc1	360	-0.711
CCCCC(=C(c1ccccc1)c1cc(C(C)(C)C)c(C(C)=O)c(C(C)(C)C)c1)c1ccc(S(C)(=O)=O)cc1	> 100000	-3.2
CS(=O)(=O)c1ccc(C=C(c2ccc(Cl)cc2)c2ccc(Cl)cc2)cc1	2000	–
CS(=O)(=O)c1ccc(/C=C(/C(=O)O)c2cccc(-c3ccc(F)cc3F)c2)cc1	> 100000	-3.2

Continued, values first:

IC50 [1] [nM]	-log(RatioIC50) [2]	Compound
> 100000	-3.15	CS(=O)(=O)Nc1ccc(/C(=C(\c2ccccc2)C2CCCCC2)c2ccccc2)cc1
1250	-1.34	CCC(=C(c1ccccc1)c1ccccc1)c1ccc(S(C)(=O)=O)cc1
–	0.609	CCCCC(=C(c1ccccc1)c1ccccc1)c1ccc(S(C)(=O)=O)cc1
> 100000	-3.2	CC(C)Oc1ccc(-c2cccc(/C(=C\c3ccc(S(C)(=O)=O)cc3)C(=O)O)c2)cc1
